The results in this text go back to ChEMBL document CHEMBL5465560, “Selectivity Literature for EUbOPEN Chemogenomic Library” (2024).

Assay [1] addresses Serine/threonine-protein kinase N1 (Homo sapiens, UniProt Q16512). Kind of assay: Selectivity interaction (KinomeScan (DiscoverX)) EUB0000607a PKN1. The conditions noted are these: at 10 µM.
For assay [2], the system named is Epidermal growth factor receptor (Homo sapiens), P00533 [G719C]. The settings on record: at 10 µM.
Assay [3] deals with Protein-tyrosine kinase 2-beta (Homo sapiens) (UniProt Q14289). The conditions noted are these: at 10 µM.
Assay [4] has as its target Mitotic checkpoint serine/threonine-protein kinase BUB1 (Homo sapiens, UniProt O43683). Kind of assay: Selectivity interaction (KinomeScan (DiscoverX)) EUB0000229b BUB1. The conditions noted are these: at 10 µM.
The target of assay [5] is T1, Tyrosine-protein kinase Tec (Homo sapiens) (UniProt P42680).
T1 sequence (whole entry): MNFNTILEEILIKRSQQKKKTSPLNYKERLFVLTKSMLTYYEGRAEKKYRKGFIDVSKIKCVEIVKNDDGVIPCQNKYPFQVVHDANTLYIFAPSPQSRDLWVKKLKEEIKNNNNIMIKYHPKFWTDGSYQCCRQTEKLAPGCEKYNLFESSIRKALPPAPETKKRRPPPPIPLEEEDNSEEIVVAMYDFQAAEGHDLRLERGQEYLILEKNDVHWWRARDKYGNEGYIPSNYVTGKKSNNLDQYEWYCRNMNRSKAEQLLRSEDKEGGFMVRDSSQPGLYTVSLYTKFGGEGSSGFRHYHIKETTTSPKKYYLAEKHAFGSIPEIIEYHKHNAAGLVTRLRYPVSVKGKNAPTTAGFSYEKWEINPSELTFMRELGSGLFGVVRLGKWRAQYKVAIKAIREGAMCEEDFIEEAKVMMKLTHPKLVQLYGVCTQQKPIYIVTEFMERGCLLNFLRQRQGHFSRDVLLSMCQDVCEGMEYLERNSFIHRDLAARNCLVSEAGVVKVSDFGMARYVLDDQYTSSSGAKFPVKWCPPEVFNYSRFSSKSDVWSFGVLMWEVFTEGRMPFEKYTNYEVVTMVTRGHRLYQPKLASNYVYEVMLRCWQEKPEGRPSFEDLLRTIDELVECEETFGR
The assay is described as follows: Selectivity interaction (ActivX KiNativ screen (kinase selectivity in THP-1 cell lysates)) EUB0000639a TEC. In kind it is subcellular. The conditions noted are these: lysate, at 5 µM.

The target in assay [6] is Phosphatidylinositol 4-phosphate 5-kinase type-1 gamma (Homo sapiens) (UniProt O60331). The assay is described as follows: Selectivity interaction (KinomeScan (DiscoverX)) EUB0001049a PIP5K1C. The settings on record: at 1 µM.
In assay [7] the target is T2, Serine/threonine-protein kinase Nek11 (Homo sapiens) (UniProt Q8NG66).
T2 sequence (whole entry): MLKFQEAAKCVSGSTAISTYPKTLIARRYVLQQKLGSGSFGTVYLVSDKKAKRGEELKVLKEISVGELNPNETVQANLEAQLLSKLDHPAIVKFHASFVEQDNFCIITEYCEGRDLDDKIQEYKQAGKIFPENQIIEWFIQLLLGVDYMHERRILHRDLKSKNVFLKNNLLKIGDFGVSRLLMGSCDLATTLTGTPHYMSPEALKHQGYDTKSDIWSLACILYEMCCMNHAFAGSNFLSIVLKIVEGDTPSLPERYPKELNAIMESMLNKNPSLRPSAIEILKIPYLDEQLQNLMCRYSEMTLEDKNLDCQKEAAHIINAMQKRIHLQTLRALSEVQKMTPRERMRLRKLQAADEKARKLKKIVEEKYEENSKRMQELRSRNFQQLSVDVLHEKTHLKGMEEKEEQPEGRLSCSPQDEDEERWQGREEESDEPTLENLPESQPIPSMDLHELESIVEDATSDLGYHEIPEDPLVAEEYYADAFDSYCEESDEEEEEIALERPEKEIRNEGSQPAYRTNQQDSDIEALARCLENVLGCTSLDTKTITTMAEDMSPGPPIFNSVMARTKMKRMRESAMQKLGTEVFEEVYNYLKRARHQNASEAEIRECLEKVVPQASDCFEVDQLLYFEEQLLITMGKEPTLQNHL
Kind of assay: Selectivity interaction (KinomeScan (DiscoverX)) EUB0000092b NEK11. The conditions noted are these: at 10 µM.

Assay [8] has as its target T3, Bone morphogenetic protein receptor type-2 (Homo sapiens) (UniProt Q13873).
T3 sequence (whole entry): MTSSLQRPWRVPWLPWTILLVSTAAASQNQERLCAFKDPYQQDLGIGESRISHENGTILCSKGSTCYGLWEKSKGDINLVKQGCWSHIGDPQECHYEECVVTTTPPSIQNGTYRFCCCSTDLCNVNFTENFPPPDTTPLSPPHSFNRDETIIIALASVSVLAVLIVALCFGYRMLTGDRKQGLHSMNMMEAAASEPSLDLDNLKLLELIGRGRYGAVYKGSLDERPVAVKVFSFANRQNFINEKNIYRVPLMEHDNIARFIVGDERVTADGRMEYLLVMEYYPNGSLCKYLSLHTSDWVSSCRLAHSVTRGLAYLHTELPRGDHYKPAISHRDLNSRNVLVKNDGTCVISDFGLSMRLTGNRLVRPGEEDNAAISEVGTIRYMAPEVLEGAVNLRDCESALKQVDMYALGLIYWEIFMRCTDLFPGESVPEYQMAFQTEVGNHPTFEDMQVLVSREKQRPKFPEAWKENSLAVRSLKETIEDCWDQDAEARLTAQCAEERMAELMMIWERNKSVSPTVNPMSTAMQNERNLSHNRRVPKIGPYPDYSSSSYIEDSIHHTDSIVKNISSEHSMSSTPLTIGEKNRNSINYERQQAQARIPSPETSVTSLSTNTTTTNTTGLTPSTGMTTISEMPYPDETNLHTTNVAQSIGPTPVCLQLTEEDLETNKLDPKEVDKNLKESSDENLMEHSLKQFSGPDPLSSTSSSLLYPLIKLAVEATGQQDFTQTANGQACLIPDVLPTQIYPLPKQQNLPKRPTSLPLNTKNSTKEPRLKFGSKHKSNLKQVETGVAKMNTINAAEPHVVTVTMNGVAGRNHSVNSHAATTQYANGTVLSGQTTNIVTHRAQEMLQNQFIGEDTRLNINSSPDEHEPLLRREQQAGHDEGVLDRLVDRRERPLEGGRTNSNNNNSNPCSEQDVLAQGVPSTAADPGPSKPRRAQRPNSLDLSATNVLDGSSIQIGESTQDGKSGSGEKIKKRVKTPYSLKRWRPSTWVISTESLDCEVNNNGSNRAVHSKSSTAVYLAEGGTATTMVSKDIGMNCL
The assay is described as follows: Selectivity interaction (KinomeScan (DiscoverX)) EUB0000045b BMPR2.

The structures appear in SMILES notation.

Protein-tyrosine kinase 2-beta (Homo sapiens), sequence (Q14289 whole entry, looked up): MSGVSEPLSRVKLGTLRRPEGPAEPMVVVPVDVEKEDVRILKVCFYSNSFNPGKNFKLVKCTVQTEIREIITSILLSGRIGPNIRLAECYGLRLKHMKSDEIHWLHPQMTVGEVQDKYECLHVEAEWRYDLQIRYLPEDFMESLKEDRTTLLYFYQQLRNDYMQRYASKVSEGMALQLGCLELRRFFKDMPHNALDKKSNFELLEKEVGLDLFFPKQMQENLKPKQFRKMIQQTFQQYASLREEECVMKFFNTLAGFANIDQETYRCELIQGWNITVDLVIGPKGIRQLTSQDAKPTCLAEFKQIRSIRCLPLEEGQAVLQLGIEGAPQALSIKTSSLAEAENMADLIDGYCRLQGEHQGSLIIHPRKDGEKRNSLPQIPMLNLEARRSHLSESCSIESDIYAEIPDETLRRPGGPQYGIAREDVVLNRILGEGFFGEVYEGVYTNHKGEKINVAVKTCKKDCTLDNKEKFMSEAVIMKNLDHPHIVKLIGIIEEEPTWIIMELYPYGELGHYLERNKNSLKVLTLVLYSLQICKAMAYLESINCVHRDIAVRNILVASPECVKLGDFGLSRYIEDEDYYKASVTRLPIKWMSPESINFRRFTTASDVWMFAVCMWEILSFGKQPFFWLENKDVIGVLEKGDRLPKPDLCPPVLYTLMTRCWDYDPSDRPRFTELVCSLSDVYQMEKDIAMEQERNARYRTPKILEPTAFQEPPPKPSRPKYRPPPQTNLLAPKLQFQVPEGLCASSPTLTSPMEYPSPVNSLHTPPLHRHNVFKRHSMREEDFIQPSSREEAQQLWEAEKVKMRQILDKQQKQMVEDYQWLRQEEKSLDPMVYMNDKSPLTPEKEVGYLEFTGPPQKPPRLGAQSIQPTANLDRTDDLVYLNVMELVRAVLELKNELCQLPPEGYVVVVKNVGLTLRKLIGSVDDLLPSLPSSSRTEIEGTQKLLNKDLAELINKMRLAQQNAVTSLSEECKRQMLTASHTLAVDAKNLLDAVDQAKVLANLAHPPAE
Epidermal growth factor receptor (Homo sapiens), P00533 [G719C], sequence (P00533 whole entry G719C): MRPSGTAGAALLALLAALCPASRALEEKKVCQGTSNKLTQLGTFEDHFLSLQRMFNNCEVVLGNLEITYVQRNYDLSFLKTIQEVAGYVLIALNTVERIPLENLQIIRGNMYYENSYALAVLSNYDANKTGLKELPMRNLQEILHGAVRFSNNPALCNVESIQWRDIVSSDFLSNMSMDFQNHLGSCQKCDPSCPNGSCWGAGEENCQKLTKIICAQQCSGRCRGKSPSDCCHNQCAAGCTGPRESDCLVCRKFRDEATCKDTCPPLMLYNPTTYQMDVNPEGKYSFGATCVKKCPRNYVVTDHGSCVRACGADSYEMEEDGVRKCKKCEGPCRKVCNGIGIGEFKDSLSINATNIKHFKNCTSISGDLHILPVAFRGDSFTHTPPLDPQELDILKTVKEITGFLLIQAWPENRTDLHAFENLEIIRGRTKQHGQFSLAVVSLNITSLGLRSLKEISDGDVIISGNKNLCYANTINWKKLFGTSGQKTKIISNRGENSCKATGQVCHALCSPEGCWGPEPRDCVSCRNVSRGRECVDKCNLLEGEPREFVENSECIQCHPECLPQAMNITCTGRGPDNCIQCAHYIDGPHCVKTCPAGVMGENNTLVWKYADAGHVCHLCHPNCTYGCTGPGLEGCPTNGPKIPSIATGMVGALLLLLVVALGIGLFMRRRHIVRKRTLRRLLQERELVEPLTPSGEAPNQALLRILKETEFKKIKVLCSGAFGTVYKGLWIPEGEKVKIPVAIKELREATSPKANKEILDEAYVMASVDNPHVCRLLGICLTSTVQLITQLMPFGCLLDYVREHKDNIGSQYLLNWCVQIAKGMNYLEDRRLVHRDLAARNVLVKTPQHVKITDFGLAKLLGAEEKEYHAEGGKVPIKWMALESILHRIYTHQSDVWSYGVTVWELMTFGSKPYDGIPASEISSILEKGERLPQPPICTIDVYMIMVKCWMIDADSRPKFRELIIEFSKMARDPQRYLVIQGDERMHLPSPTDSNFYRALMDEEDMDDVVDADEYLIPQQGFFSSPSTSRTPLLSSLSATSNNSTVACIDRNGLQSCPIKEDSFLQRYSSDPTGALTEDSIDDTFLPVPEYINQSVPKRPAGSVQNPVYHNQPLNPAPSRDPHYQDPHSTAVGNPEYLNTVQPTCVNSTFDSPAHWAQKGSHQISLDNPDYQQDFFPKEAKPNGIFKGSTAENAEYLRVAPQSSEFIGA
Phosphatidylinositol 4-phosphate 5-kinase type-1 gamma (Homo sapiens), sequence (O60331 whole entry): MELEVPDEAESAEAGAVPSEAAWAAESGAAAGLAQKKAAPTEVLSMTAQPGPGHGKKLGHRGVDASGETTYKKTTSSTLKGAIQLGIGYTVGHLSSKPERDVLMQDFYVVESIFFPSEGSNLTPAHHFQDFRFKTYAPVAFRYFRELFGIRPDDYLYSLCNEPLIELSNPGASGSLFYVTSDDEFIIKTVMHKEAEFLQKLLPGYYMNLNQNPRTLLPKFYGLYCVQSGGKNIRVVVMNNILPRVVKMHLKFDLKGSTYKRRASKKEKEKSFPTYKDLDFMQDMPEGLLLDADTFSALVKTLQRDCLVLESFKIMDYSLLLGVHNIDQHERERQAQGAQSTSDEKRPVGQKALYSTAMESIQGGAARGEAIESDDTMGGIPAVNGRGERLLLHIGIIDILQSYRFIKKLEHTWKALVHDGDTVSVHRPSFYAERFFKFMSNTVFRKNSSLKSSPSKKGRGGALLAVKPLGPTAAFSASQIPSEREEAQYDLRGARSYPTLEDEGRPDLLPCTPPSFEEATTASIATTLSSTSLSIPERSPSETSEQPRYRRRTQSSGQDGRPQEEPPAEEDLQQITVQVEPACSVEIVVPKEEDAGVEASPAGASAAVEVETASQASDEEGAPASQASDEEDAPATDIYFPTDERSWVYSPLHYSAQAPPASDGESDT
Mitotic checkpoint serine/threonine-protein kinase BUB1, sequence (O43683 whole entry, looked up): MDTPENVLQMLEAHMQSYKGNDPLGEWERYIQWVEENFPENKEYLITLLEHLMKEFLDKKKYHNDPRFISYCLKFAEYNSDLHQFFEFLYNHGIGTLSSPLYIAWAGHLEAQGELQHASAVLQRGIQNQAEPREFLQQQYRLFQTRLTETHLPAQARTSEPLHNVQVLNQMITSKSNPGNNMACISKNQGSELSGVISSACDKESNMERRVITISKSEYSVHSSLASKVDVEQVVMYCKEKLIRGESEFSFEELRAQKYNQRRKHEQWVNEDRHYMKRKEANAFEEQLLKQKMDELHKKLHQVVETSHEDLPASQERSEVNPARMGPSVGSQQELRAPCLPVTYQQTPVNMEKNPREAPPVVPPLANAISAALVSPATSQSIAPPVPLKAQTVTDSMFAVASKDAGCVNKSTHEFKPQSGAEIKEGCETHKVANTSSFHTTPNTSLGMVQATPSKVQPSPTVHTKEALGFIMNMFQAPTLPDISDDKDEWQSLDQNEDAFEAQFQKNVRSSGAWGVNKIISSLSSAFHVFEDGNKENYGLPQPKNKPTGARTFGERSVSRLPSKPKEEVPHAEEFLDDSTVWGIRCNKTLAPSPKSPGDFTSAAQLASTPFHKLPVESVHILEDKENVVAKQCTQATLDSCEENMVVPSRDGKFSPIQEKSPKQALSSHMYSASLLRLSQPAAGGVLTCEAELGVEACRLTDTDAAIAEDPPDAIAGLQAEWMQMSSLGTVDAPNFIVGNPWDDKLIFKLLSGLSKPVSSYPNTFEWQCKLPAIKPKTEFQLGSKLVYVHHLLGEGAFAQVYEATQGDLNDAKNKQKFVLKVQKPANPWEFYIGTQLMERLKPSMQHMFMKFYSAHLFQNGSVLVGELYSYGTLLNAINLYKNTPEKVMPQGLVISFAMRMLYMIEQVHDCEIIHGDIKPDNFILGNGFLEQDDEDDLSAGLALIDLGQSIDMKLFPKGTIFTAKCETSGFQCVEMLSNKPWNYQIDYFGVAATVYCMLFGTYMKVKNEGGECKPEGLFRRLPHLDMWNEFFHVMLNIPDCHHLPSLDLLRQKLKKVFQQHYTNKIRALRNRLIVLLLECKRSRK
Serine/threonine-protein kinase N1, sequence (Q16512 2-942 limits assumed): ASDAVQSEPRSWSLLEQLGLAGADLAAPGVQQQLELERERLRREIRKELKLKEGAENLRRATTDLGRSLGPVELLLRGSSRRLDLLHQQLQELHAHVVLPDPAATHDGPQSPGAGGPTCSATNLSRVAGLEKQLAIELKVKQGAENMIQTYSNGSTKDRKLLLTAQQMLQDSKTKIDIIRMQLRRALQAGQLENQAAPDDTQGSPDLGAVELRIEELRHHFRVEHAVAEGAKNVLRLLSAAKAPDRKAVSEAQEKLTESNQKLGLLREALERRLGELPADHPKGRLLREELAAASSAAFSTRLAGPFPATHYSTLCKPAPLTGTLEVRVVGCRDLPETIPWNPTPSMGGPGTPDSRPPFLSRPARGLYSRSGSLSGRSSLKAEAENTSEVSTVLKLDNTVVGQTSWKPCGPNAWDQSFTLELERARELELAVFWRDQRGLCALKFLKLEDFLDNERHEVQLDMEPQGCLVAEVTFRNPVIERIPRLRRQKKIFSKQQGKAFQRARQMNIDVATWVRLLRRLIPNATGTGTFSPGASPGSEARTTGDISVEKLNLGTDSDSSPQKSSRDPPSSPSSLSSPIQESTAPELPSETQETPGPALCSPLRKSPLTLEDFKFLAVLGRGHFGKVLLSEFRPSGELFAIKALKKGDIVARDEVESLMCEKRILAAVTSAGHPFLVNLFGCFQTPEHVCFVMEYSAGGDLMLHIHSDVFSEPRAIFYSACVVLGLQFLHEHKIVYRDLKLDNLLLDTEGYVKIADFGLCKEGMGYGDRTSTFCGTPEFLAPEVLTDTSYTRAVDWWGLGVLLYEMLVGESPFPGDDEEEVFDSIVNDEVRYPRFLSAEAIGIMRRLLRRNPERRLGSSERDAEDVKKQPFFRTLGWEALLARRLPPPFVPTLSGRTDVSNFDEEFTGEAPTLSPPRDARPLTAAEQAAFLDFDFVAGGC

Take `CNC(=O)Nc1ccc(-c2nc(N3CC4CCC(C3)O4)c3cnn(C4CCC5(CC4)OCCO5)c3n2)cc1`: the % of control in assay [1] was determined as 100%.
Take `Cc1cc([C@@H](C)Nc2ccccc2C(=O)O)c2nc(N3CCOCC3)cc(=O)n2c1` [AZD-6482]: the % of control in assay [2] was found to be 95%; in assay [3], 100%.
Turning to `COc1cc(N(C)c2ccnc3ccc(C(F)(F)F)cc23)cc(OC)c1OC`, the % binding in assay [4] stood at 98%.
Consider `CC[C@@H]1[C@H](F)C(=O)N[C@@H]1COc1nccc2cc(C(N)=O)c(OC)cc12` [ZIMLOVISERTIB], for which, in assay [5], the % of inhibition was -18.7%.
Turning to `COc1cc(Nc2nc(C)cc(-c3cnn4nc(OC)ccc34)n2)cc(C(F)(F)F)c1`, the % of control in assay [6] was 94%.
On to `CCC(=O)N1CCN(c2ccc(-n3c(=O)ccc4cnc5ccc(-c6cnc7ccccc7c6)cc5c43)cc2C(F)(F)F)CC1`, for which the % of control in assay [7] is 65%.
As to `C=CC(=O)Nc1cc(-n2c(=O)ccc3cnc4ccc(-c5ccc(NS(C)(=O)=O)cc5)cc4c32)ccc1C`, the figures for the % of control in assay [8] (at 1 µM) and in assay [8] (at 10 µM) were 69% and 50%, respectively.
